Results published in patent publication US12728116B2, “Methods of treating multiple sclerosis” (Vanda Pharmaceuticals Inc., priority 2021, dated 2026).

Key:
Assay type in all cases: in vivo, human
[1] = test system: adult subjects with relapsing MS; test: Confirmed relapses up to EOS - annualized relapse rate (ARR), phase III study; details: for Total number of relapses (confirmed, up to EOS): total time 1119 / 1137 years; for Mean estimate (ARR), confirmed relapses up to EOS, negative binomial regression: ponesimod 20 mg, teriflunomide 14 mg
Protocol: Primary efficacy variable/primary timepoint: The primary endpoint was annualized relapse rate (ARR) up to the end of study (EOS) defined as the number of confirmed relapses per subject-year. All available data up to EOS, regardless of treatment discontinuation was included (ITT approach).
A generalized linear model with negative binomial distribution was fitted for the primary efficacy endpoint ARR. Two-sided hypotheses were expressed in terms of the model parameters μP20 mg and μT14 mg.
The primary statistical analysis of the ARR endpoint was performed on the FAS using a negative binomial model for confirmed relapses, with the stratification variables prior use of disease-modifying therapies (DMTs) and EDSS category as well as the number of relapses in the year prior to study entry, included in the model and time in the study as an offset variable. Sensitivity analyses was performed on the PPS and also based on different subgroups derived from baseline variables.
A relapse is defined as new, worsening or recurrent neurological symptoms that occur at least 30 days after the onset of a preceding relapse, and that last at least 24 hours, in the absence of fever or infection.
A relapse was confirmed by the treating neurologist only when the subjects' symptoms were accompanied by an increase in EDSS/FS (functional system) scores, which were consistent with the subject's symptoms, from a previous clinically stable EDSS/FS assessment (i.e., performed at least 30 days after the onset of any previous relapse), obtained by the efficacy assessor and consistent with the following: • An increase of at least half a step (0.5 points; unless EDSS=0, then an increase of at least 1.0 points is required) or • An increase of at least 1.0 point in at least two FS scores, or • An increase of at least 2.0 points in at least one FS score (excluding bladder/bowel and cerebral).
The primary statistical analysis was performed up to EOS on the FAS using a negative binomial regression model for confirmed relapses, with treatment as a factor and the binary stratification variables (EDSS≤3.5 versus EDSS>3.5; DMTs within last 2 years prior to randomization [Yes/No]) and the number of relapses in the year prior to study entry (categories≤1 (or missing) and […]) included in the model. The model also included an offset variable defined as the log of time on study (in years) from randomization up to EOS.
This subgroup analysis examined patients with EDSS≤3 (up to moderate disability in one function, or mild disability in three or four functions; no impairment to walking), and/or who were treatment naïve.
ARR differences and mean number of CUALs were examined using a negative binomial regression model with adjusting for the log time in the study (in years) as an offset.

[2] = test system: adult subjects with relapsing MS; test: Time to first 12-week / 24-week confirmed disability accumulation (CDA) on EDSS; details: for Subjects with a 12-week CDA up to EOS / Subjects with a 24-week CDA up to EOS: ponesimod 20 mg, teriflunomide 14 mg
Protocol: Secondary efficacy variables and testing strategy: Four secondary efficacy endpoints were analyzed as per the statistical testing strategy outlined in FIG. 1. • Change from baseline to Week 108 in fatigue-related symptoms as measured by the symptoms domain of the FSIQ-RMS patient-reported outcome [Fatigue] • Cumulative number of combined unique active lesions from baseline to Week 108 on brain MRI [CUALs] • Time to first 12-week confirmed disability accumulation (CDA) from baseline to EOS on Expanded Disability Status Scale (EDSS) [12-week CDA] • Time to first 24-week CDA from baseline to EOS on EDSS [24-week CDA]
(§1) A 12-week CDA is an increase of at least 1.5 in EDSS for subjects with a baseline EDSS score of 0.0 or an increase of at least 1.0 in EDSS for subjects with a baseline EDSS score of 1.0 to 5.0, or an increase of at least 0.5 in EDSS for subjects with a baseline EDSS score≥5.5 which is to be confirmed after 12 weeks.
All EDSS measurements (with or without relapse, at a scheduled or unscheduled visit) were used to determine the onset of disability accumulation. However, EDSS scores used for confirmation of disability accumulation were obtained at a scheduled visit (i.e., unscheduled visits cannot be used as confirmatory visits) outside any ongoing relapse. In this context, relapse duration is defined as period between start and end dates if available and limited to 90 days from onset if end date is not available or duration is longer than 90 days.
In order to confirm that the EDSS increase is persistent, all EDSS measurements between the onset and the 12-week EDSS confirmation (minus 7-day visit time-window) need to show an increase in EDSS, meeting the criteria for accumulation of disability as defined above.
as §1, with “24-week” for “12-week”, “24” for “12”
In order to confirm that the EDSS increase is persistent, all EDSS measurements between the onset and the 24-week EDSS confirmation (minus 7-day visit time-window) need to show an increase in EDSS, meeting the criteria for accumulation of disability as defined above.

[3] = test system: Patients (18-55 years) with RMS; test: Prespecified MRI-based endpoints and NEDA-3 status
Protocol: Patients (18-55 years) with RMS (expanded disability status scale scores: 0-5.5) were randomized (1:1) to receive ponesimod (PON) 20 mg or teriflunomide (TER) 14 mg for 108 weeks. MRI assessments were: volume of T2 lesions; mean number of new gadolinium-enhancing (Gd+) T1 lesions and new/enlarging T2 lesions; and absence of active MRI lesions at week 108. NEDA-3 status (absence of confirmed relapse, Gd+T1 lesions and new/enlarging T2 lesions on annual MRIs, and 12-week confirmed disability accumulation) was evaluated from baseline to week 108.

[4] = ponesimod 20 mg vs teriflunomide 14 mg, not statistically significant

SMILES | Raw ARR ([1]; Full Analysis Set) | Total number of relapses (confirmed, up to EOS) ([1]; Full Analysis Set) | Mean estimate (ARR), confirmed relapses up to EOS, negative binomial regression ([1]; Full Analysis Set) | Subjects with a 12-week CDA up to EOS [2] | Subjects with a 24-week CDA up to EOS ([2]; exploratory) | Patients who achieved NEDA-3 ([3]; At week 108) | Mean number of new Gd+T1 lesions per scan ([3]; baseline to week 108) | Mean numbers of new/enlarging T2 lesions per year ([3]; baseline to week 108) | further results
CCC/N=C1\S/C(=C\c2ccc(OC[C@H](O)CO)c(Cl)c2)C(=O)N1c1ccccc1C [Ponesimod, (R)-5-[3-chloro-4-(2,3-dihydroxy-propoxy)-benz[Z]ylidene]-2-([Z]-propylimino)-3-o-tolyl-thiazolidin-4-one] | 0.216 | 242 | 0.202 | 10.1% | 8.1% | 28.2% | 0.18 | 1.40 | ARR rate ratio (RR), ponesimod vs teriflunomide ([1]; EDSS≤3 subgroup): 0.530; Reduction of ARR vs teriflunomide ([1]; EDSS≤3 subgroup): 47%; Reduction of ARR (confirmed relapses) up to EOS compared to teriflunomide ([1]; ponesimod 20 mg vs teriflunomide 14 mg): 30.5%; Treatment effect (rate ratio) on ARR, ponesimod vs teriflunomide ([1]; ponesimod 20 mg vs teriflunomide 14 mg, Full Analysis Set): 0.695; Time to first 24-week CDA, hazard ratio ponesimod vs teriflunomide ([2]; Full Analysis Set, exploratory): 0.84; Time to first 12-week CDA, hazard ratio ponesimod vs teriflunomide ([2]; Full Analysis Set, stratified Cox regression): 0.83; Reduction of risk of 12-week CDA compared to teriflunomide [2, 4]: 17%; Reduction of risk of 24-week CDA compared to teriflunomide [2, 4]: 16%; Odds ratio for achieving NEDA-3, PON vs TER ([3]; At week 108): 1.70; Rate ratio, new Gd+T1 lesions per scan, PON vs TER ([3]; baseline to week 108): 0.42; Rate ratio, new/enlarging T2 lesions per year, PON vs TER ([3]; baseline to week 108): 0.44; Least square (LS) mean difference (PON-TER) in change from baseline in total volume of T2 lesions ([3]; baseline to week 108, PON 20 mg vs TER 14 mg): −399.2 mm^3; PON vs TER odds ratio for absence of new Gd+T1 lesions ([3]; week 108): 2.18; PON vs TER odds ratio for absence of new/enlarging 12 lesions ([3]; week 108): 1.71
C/C(O)=C(\C#N)C(=O)Nc1ccc(C(F)(F)F)cc1 [Teriflunomide, reference compound] | 0.303 | 344 | 0.290 | 12.4% | 9.9% | 18.3% | 0.43 | 3.16 | 
